Test results taken from patent US11987645B2, “Peptide for treating rheumatoid arthritis and use thereof” (SEOUL NATIONAL UNIVERSITY R&DB FOUNDATION, priority 2018, dated 2024).

What was measured:
[1] = tested on: K/B×N rheumatoid arthritis animal model; assay: Example 3-2: K/B×N rheumatoid arthritis animal model (K/B×N serum transfer arthritis mouse); format: in vivo; conditions: subcutaneous injection to the affected region; K/B×N serum and apoB induced; FIG. 11
Description: K/B×N rheumatoid arthritis animal model (K/B×N serum transfer arthritis mouse) was established by inducing moderate rheumatoid arthritis by administering K/B×N serum and apoB to the mouse, and peptides for inhibiting the secretion of inflammatory cytokine were subcutaneously injected to the affected region of the animal model. Afterwards, changes in the ankle thickness and arthritis score resulting after peptide injection were identified. In addition, under the same conditions as described above, changes in the synovial inflammation, bone erosion, cartilage damage and leukocyte infiltration were compared. Meanwhile, groups treated with K/B×N serum and apoB only were determined as control groups, and groups treated with K/B×N serum and apoB, and a non-binding peptide treated group (NBP) were determined as comparison groups.

[2] = tested on: peripheral blood cells derived from rheumatoid arthritis patients; assay: Example 3-1: inflammatory cytokine secretion in peripheral blood cells derived from rheumatoid arthritis patients; format: cell-based, human; conditions: FIG. 10; for secretion level of IL-1β / secretion level of IL-6 / secretion level of TNF-α: peripheral blood cells of rheumatoid arthritis patients, control NBP
Protocol: After peripheral blood cells derived from rheumatoid arthritis patients were treated with apoB100 #1, apoB100 #3, and apoB100 #5, changes in the secretion of IL-1β, IL-6 and TNF-α were identified. A non-binding peptide treated group (NBP) was determined as the control group.

[3] = tested on: peripheral blood mononuclear cells obtained from rheumatoid arthritis patients; assay: Inflammatory cytokine secretion after treating peripheral blood mononuclear cells of rheumatoid arthritis patients with apoB100-derived peptides #1 to #5; format: cell-based, human; conditions: PBMC of rheumatoid arthritis patients; control non-binding peptide (NBP); FIG. 8
Protocol: Thereafter, peripheral blood mononuclear cells obtained from the healthy control and rheumatoid arthritis patients were treated with the peptides #1 to #5 (which are named apoB100 #1, apo100 #2, apoB100 #3, apoB100 #4, and apoB100 #5, respectively), and changes in the secretion of IL-1β, IL-6 and TNF-α were compared. Meanwhile, a non-binding peptide treated group (NBP) was determined as the control group, and the results of this example are indicated as the mean values of the secretion levels for each six of rheumatoid arthritis patients and healthy individuals.

[4] = tested on: peripheral blood mononuclear cells isolated from rheumatoid arthritis patients; assay: Inflammatory cytokine secretion after treating peripheral blood mononuclear cells of rheumatoid arthritis patients with apoB100; format: cell-based, human
Description: In this example, in order to identify the relation between rheumatoid arthritis and ENO1 expression on peripheral blood mononuclear cells, the ENO1 expression thereof was observed. In addition, it was attempted to identify the effect of binding ENO1 (α-enolase) to apolipoprotein B100 (apoB100) isolated from a rheumatoid arthritis patient and selected as an ENO1 (α-enolase) binding ligand on the secretion of inflammatory cytokine in the peripheral blood of the rheumatoid arthritis patient through proteomic analysis using immunoprecipitation (IP)/mass spectroscopy (MS). In detail, after ENO1 immunoblotting was performed on mononuclear cells obtained from the rheumatoid arthritis patient and peripheral blood mononuclear cells were treated with apoB100, changes in the secretion of IL-1β, IL-6 and TNF-α were compared. Meanwhile, a group in which cells isolated from healthy individuals are used (HC: healthy control) was determined as the control group.
Accordingly, in this example, it was additionally verified whether the binding of ENO1 and apoB100 crucially affected inflammation responses due to rheumatoid arthritis. […] In addition, since LDL existing in vivo in a state in which it binds to apoB100 protein may potentially involve the inflammation responses, LDLR knockout mouse and C57BL/6 wild-type mouse control group were treated with the serum of K/B×N mouse (referred to as K/B×N serum, hereinafter) and ApoB100, and resulting changes in vivo were compared. Meanwhile, addition of K/B×N mouse serum functions to induce rheumatoid arthritis through deposition of autoantibodies existing in the K/B×N serum, and is one of conventional techniques for manufacturing rheumatoid arthritis animal models by autoimmune responses.

ENO1 (α-enolase) = ENO1 (α-enolase) (Homo sapiens, UniProt P06733); assay: ENO1-apoB100 binding by immunoblotting, confocal microscopy, BIACORE system and ELISA assay; conditions: ELISA, FIG. 3
[5] = RA patient mononuclear cells treated with apoB100, compared to healthy control group, FIG. 2

Sequence of ENO1 (α-enolase) (P06733 whole entry): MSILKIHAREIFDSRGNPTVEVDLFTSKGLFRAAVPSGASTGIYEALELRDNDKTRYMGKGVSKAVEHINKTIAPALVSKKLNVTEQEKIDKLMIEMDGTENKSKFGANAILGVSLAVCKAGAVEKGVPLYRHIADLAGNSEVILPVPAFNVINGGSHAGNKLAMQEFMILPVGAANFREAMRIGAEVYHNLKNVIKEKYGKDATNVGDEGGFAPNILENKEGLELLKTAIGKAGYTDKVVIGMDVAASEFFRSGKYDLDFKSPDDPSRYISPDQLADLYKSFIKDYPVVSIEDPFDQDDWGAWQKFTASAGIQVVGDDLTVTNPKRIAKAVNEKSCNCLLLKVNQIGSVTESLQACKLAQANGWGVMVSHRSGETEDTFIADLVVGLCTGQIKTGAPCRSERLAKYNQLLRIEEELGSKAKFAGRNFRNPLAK

| Substance | ankle thickness [1] | arthritis score [1] | secretion level of IL-1β [2] | secretion level of IL-6 [2] | secretion level of TNF-α [2] | secretion level of IL-1β [3] | secretion level of IL-6 [3] | secretion level of TNF-α [3] | treatment efficacy (decrease of cytokine secretion) compared among the peptides ([2]; among apoB100 #1, #3 and #5) | secretion level of inflammatory cytokines ([4]; ENO1 expression of PBMC inhibited with ENO1 siRNA, then apoB100 treatment, FIG. 4) | secretion level of IL-1β [4, 5] | secretion level of IL-6 [4, 5] | secretion level of TNF-α [4, 5] | ENO1-apoB100 binding (ENO1 (α-enolase)) |
| --- | --- | --- | --- | --- | --- | --- | --- | --- | --- | --- | --- | --- | --- | --- |
| AICKEQHLFLPF (peptide #1) [apoB100 #1] | significantly decreased | significantly decreased | significantly decreased | significantly decreased | significantly decreased | decreased | decreased | decreased | – | – | – | – | – | – |
| CKEQHLFLPFSY (peptide #2) [apoB100 #2] | – | – | – | – | – | markedly increased | markedly increased | markedly increased | – | – | – | – | – | – |
| KNKYGMVAQVTQ (peptide #4) [apoB100 #4] | – | – | – | – | – | markedly increased | markedly increased | markedly increased | – | – | – | – | – | – |
| SYKNKYGMVAQV (peptide #3) [apoB100 #3] | significantly decreased | significantly decreased | significantly decreased | significantly decreased | significantly decreased | decreased | decreased | decreased | highest | – | – | – | – | – |
| TKKMGLAFESTK (peptide #5) [apoB100 #5] | significantly decreased | significantly decreased | significantly decreased | significantly decreased | significantly decreased | decreased | decreased | decreased | – | – | – | – | – | – |
| apolipoprotein B100 [apoB100] | – | – | – | – | – | – | – | – | – | an increased secretion level of inflammatory cytokines was not observed | markedly increased | markedly increased | markedly increased | relatively strong binding |
